Experiments:
nAChR = conditions: cited from earlier work
[1] = system: primary cultures of rat neonatal cortex (cultured cortical neurons); type: cell-based

HOCCLYGK-CRRYOGCSSASASCCQR [ψPIIIE]
nAChR activity annotation (nAChR): non comp. nAChR

RDOCCYHPTCNMSNPQIC* [EI]
Target: nAChR (subtype) (nAChR): α1γ = α1δβ2 musc.

A-O-A-N-S-V*-W-S [gla-1]
effect on Ca^++ flux in the cells [1]: reducing Ca^++ flux
modulation of Ca^++ flux in cultured neurons from rat cortex [1]: modulate Ca^++ flux
